Laboratory results taken from patent publication US7687526B2, “Benzo-fused compounds for use in treating metabolic disorders” (Amgen Inc., priority 2006, dated 2010).

Assays:
human GPR40 = target: T1, human GPR40 (Homo sapiens, UniProt O14842); assay: Cell-based aequorin assay using human GPR40; conditions: CHO cells stably transfected with GPR40 and Aequorin; 0.01% HSA; aequorin luminescence; read-out: Relative EC50
T1 construct: expressed in transfected cells; host or cells: CHO cells
Protocol: Cell-based aequorin assays were employed to characterize the modulatory activity of compounds on the GPR40 signaling pathway. In an exemplary assay, CHO cells were stably transfected with both GPR40 and Aequorin (Euroscreen). Cells were detached from the tissue culture dish with 2 mL of trypsin (0.25% (w/v)). Trypsinization was halted with 28 mL of Hanks Buffered Salt Solution containing 20 mM Hepes (H/HBSS) and 0.01% fatty acid-free human serum albumin (HSA). Coelantrazine is added to 1 ug/mL, and the cells were incubated for 2 hours at room temperature. Compounds were dissolved in DMSO for preparation of 10 mM stock solutions. Compounds were diluted in H/HBSS containing 0.01% HSA. Serial dilutions of the test compounds were prepared to determine dose response.
Aequorin luminescence measurements were made using an EG&G Berthold 96-well luminometer, and the response was measured over a 20 second interval after cells and compounds were mixed. The maximum relative light units was plotted to determine dose response. The EC50 (effective concentration to reach 50% maximal response) was determined from the dose response plot.
Table 1 presents representative data (EC50 values) obtained for exemplary compounds of the invention for the relative activation of human GPR40. […]

Human islets = assay: Insulin secretion assay; format: cell-based; conditions: human islet cells, KRBH with 11.2 mM glucose, insulin measured by SPA; read-out: EC50 of stimulated insulin secretion from islet cells
Protocol: Human islets were isolated from cadaveric donors. Islets were treated with trypsin (0.25% (w/v) and cells were seeded in 96-well plates containing 3,000 cells per well. Cells were cultured in Roswell Park Memorial Institute (RMPI) media containing 10% fetal bovine serum.
For determination of insulin secretion, media was removed from islet cells and replaced with Krebs-Ringer bicarbonate buffer containing 10 mM HEPES (KRBH) and 2 mM glucose. After one hour incubation, media was replaced with KRBH containing 11.2 mM glucose and test compounds. Insulin released into the medium from the islet cells was measured using scintillation proximity assay (SPA).

T1 sequence (O14842 whole entry): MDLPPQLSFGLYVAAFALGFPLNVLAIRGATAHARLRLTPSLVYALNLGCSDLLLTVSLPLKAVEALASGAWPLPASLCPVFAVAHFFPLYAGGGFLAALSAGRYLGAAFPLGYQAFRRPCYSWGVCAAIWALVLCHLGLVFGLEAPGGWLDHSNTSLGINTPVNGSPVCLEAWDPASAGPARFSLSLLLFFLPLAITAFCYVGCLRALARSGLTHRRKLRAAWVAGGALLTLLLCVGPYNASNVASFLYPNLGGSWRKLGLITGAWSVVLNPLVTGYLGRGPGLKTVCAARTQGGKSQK

Compound	EC50 (human GPR40) [nM]	EC50 (Human islets) [nM]
CC#CC(CC(=O)O)c1ccc(OCc2ccc3c(c2)C[C@H](c2ccc(Cl)cc2)O3)cc1 (single isomer, unassigned) [Example 77]	10 to 100	
Cn1ccnc1[C@@H](CC(=O)O)c1ccc(OCc2ccc3c(c2)C(C)(C)CC3(C)C)cc1 [Example 80, (S)-3-(1-Methyl-1H-imidazol-2-yl)-3-(4-((1,1,3,3-tetramethyl-2,3-dihydro-1H-inden-5-yl)methoxy)phenyl)propanoic acid]	100 to 1000	
Cn1ccnc1[C@@H](CC(=O)O)c1ccc(OCc2ccc3c(c2)C(=O)CCC3(C)C)cc1 [Example 81, (S)-3-(4-((5,5-Dimethyl-8-oxo-5,6,7,8-tetrahydronaphthalen-2-yl)methoxy)phenyl)-3-(1-methyl-1H-imidazol-2-yl)propanoic acid]	1000 to 10000	
CCC1(CC)CCC(C)(C)c2ccc(COc3ccc([C@H](CC(=O)O)c4nnnn4C)cc3)cc21 [Example 73, (S)-3-(4-((8,8-diethyl-5,5-dimethyl-5,6,7,8-tetrahydronaphthalen-2-yl)methoxy)phenyl)-3-(1-methyl-1H-tetrazol-5-yl)propanoic acid]	10 to 1000	
CC#CC(CC(=O)O)c1ccc(OCc2ccc3c(c2)C[C@@H](c2ccc(Cl)cc2)O3)cc1 (single isomer, unassigned) [Example 76]	10 to 100	
Cn1ccnc1[C@@H](CC(=O)O)c1ccc(OCc2ccc3c(c2)OCCO3)cc1 [Example 86, (S)-3-(4-((2,3-Dihydrobenzo[b][1,4]dioxin-6-yl)methoxy)phenyl)-3-(1-methyl-1H-imidazol-2-yl)propanoic acid]	1000 to 10000	
Cn1ccnc1[C@@H](CC(=O)O)c1ccc(OCc2ccc3c(c2)CCCC3(C)C)cc1 [Example 75, (S)-3-(4-((5,5-dimethyl-5,6,7,8-tetrahydronaphthalen-2-yl)methoxy)phenyl)-3-(1-methyl-1H-imidazol-2-yl)propanoic acid]	100 to 1000	
Cn1ccnc1[C@@H](CC(=O)O)c1ccc(OCc2ccc3c(c2)OC(F)(F)O3)cc1 [Example 82, (S)-3-(4-((2,2-difluorobenzo[d][1,3]dioxol-5-yl)methoxy)phenyl)-3-(1-methyl-1H-imidazol-2-yl)propanoic acid]	100 to 1000	

Results, then the molecule that gave them:

EC50 (human GPR40) [nM]	EC50 (Human islets) [nM]	Compound
10 to 100		CC1(C)CCC(C)(C)c2cc(COc3ccc([C@H](CC(=O)O)C4=NOCC4)cc3)ccc21 [Example 74, 3-(4,5-Dihydroisoxazol-3-yl)-3-(4-((5,5,8,8-tetramethyl-5,6,7,8-tetrahydronaphthalen-2-yl)methoxy)phenyl)propanoic acid]
1000 to 10000		CC#C[C@H](CC(=O)O)c1ccc(OCc2ccc3c(c2)C(C)(C)CCC3(C)C)cc1 [Example 20, (R)-3-(4-((5,5,8,8-Tetramethyl-5,6,7,8-tetrahydronaphthalen-2-yl)methoxy)phenyl)hex-4-ynoic acid]
1000 to 10000		CC1(C)CCC(C)(C)c2cc(COc3ccc([C@H](/C=C/Cc4ccccc4)CC(=O)O)cc3)ccc21 [Example 84, (S,E)-6-Phenyl-3-(4-((5,5,8,8-tetramethyl-5,6,7,8-tetrahydronaphthalen-2-yl)methoxy)phenyl)hex-4-enoic acid]
10 to 100		CCC1(CC)CCC(C)(C)c2ccc(COc3ccc([C@H](CC(=O)O)c4ccon4)cc3)cc21 [Example 72, (S)-3-(4-((8,8-diethyl-5,5-dimethyl-5,6,7,8-tetrahydronaphthalen-2-yl)methoxy)phenyl)-3-(isoxazol-3-yl)propanoic acid]
	< 1000	CC1(C)CCC(C)(C)c2cc(COc3ccc(C(CC(=O)O)c4cncnc4)cc3)ccc21 (racemic) [Example 9, (R/S)-3-Pyrimidin-5-yl-3-[4-(5,5,8,8-tetramethyl-5,6,7,8-tetrahydro-naphthalen-2-ylmethoxy)-phenyl]-propionic acid]
100 to 1000		CC1(C)CCC(C)(C)c2cc(COc3ccc([C@H](CC(=O)O)c4ncco4)cc3)ccc21 [Example 12, (S)-3-Oxazol-2-yl-3-[4-(5,5,8,8-tetramethyl-5,6,7,8-tetrahydro-naphthalen-2-ylmethoxy)-phenyl]-propionic acid]
1000 to 10000		CC/C(C)=C/[C@H](CC(=O)O)c1ccc(OCc2ccc3c(c2)C(C)(C)CCC3(C)C)cc1 [Example 79, (S,E)-5-Methyl-3-(4-((5,5,8,8-tetramethyl-5,6,7,8-tetrahydronaphthalen-2-yl)methoxy)phenyl)hept-4-enoic acid]
100 to 1000		CC/C(C)=C/[C@@H](CC(=O)O)c1ccc(OCc2ccc3c(c2)C(C)(C)CCC3(C)C)cc1 [Example 78, (R,E)-5-Methyl-3-(4-((5,5,8,8-tetramethyl-5,6,7,8-tetrahydronaphthalen-2-yl)methoxy)phenyl)hept-4-enoic acid]
	< 1000	Cn1cncc1[C@@H](CC(=O)O)c1ccc(OCc2ccc3c(c2)C(C)(C)CCC3(C)C)cc1 [Example 4, (S)-3-(1-methyl-1H-imidazol-5-yl)-3-(4-((5,5,8,8-tetramethyl-5,6,7,8-tetrahydronaphthalen-2-yl)methoxy)phenyl)propanoic acid]
1000 to 10000		CC1(C)CCC(C)(C)c2cc(COc3ccc([C@@H](/C=C/Cc4ccccc4)CC(=O)O)cc3)ccc21 [Example 83, (R,E)-6-Phenyl-3-(4-((5,5,8,8-tetramethyl-5,6,7,8-tetrahydronaphthalen-2-yl)methoxy)phenyl)hex-4-enoic acid]
1000 to 10000		CC#C[C@@H](CC(=O)O)c1ccc(OCc2ccc3c(c2)C(C)(C)CCC3(C)C)cc1 [Example 19, (S)-3-(4-((5,5,8,8-Tetramethyl-5,6,7,8-tetrahydronaphthalen-2-yl)methoxy)phenyl)hex-4-ynoic acid]
